Measurements reported in ChEMBL document CHEMBL1151523, “Synthesis of ()-6-(3-aminopropyloxy)methyl-4-demethoxy-6, 7-dideoxy-daunomycinone, a new dna intercalator related to anthracyclines” (Bioorg Med Chem Lett, 1995).

Experiments:
Type in all cases: nucleic-acid assay, Bos taurus
Nucleic Acid [1] = experiment: Binding affinity to Calf thymus DNA type XV
Nucleic Acid [2] = experiment: Binding affinity to Calf thymus DNA type XV; value ranges from 1E4 - 3E4 M-1
Nucleic Acid [3] = experiment: Binding affinity to Calf thymus DNA type XV; value ranges from 2E6 - 4E6 M-1
Nucleic Acid [4] = experiment: Binding affinity to Calf thymus DNA type XV; value ranges from 4E6 - 6E6 M-1

CC(=O)[C@@]1(O)CCc2c(c(O)c3c(c2COCCCN)C(=O)c2ccccc2C3=O)C1.Cl
Ka (Nucleic Acid [1]): 61000 M⁻¹

COc1cccc2c1C(=O)c1c(O)c3c(c(O)c1C2=O)C[C@@](O)(C(C)=O)C[C@@H]3O [DAUNOMYCINONE]
Ka (Nucleic Acid [2]): 10000 M⁻¹

COc1cccc2c1C(=O)c1c(O)c3c(c(O)c1C2=O)C[C@@](O)(C(=O)CO)C[C@@H]3O[C@H]1C[C@H](N)[C@H](O)[C@H](C)O1 [DOXORUBICIN]
Ka (Nucleic Acid [3]): 2000000 M⁻¹

COc1cccc2c1C(=O)c1c(O)c3c(c(O)c1C2=O)C[C@@](O)(C(C)=O)C[C@@H]3O[C@H]1C[C@H](N)[C@H](O)[C@H](C)O1.Cl [DAUNORUBICIN HYDROCHLORIDE]
Ka (Nucleic Acid [4]): 4000000 M⁻¹
